Reference: article PMC9821843, “Powerful Potential of Polyfluoroalkyl-Containing 4-Arylhydrazinylidenepyrazol-3-ones for Pharmaceuticals” (Molecules, 2022)
Converted amounts (≈) assume the structure as drawn. “And” between values parts separate entries of the source, which are not always exact repeats. Identical values can stand only once. Like-named read-outs stand apart in the source and are kept apart here.

What was measured:
[1] = ABTS radical cation scavenging activity assay; parameters: key to ABTS•+-scavenging activity, TEAC (trolox equivalent antioxidant capacity): TEAC = ratio of compound slope to Trolox slope vs ABTS absorbance; details: mean ± SEM; for ABTS•+-scavenging activity, TEAC (trolox equivalent antioxidant capacity): n.a. = inactive
Summary of the method: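 ABTS•+ (from 7 mM ABTS plus 2.45 mM persulfate) mixed with compound, 5 × 10^–7–4 × 10^–4 M, 1 h at 30 °C; absorbance decrease read at 734 nm. TEAC from slope ratio versus Trolox; IC50 as 50% radical reduction for compounds exceeding 60% reduction at 100 µM.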

Sprague-Dawley (SD) rats = assay: Hot plate test (analgesic activity); type: in vivo; details: ip; for change in vivo at 15 mg/kg: Rattus norvegicus
Summary of the method: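 Test compounds were given i.p. as suspensions in 1% starch mucilage to SD rats (3 male, 3 female per group), vehicle as negative control. At 1 and 2 h post-dose, latency to nociceptive response (jumping, hind paw licking/shaking) on a 50 °C plate was recorded, 30 s cutoff.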

[2] = Acute toxicity evaluation in mice (ip); details: CD-1, mouse, in vivo, 300 mg/kg
Description: The toxicity evaluation was performed on CD-1 mice. […] The tested compounds in 1% starch mucilage were injected intraperitoneally into three mice. Then, animals were observed during 14 days, the number of deaths was counted and % of viability calculated.

[3] = system: Neisseria gonorrhoeae ATCC 49226/NCTC 12700; assay: Antibacterial activity against Neisseria gonorrhoeae; type: cell-based; details: read-out: MIC against Neisseria gonorrhoeae
HeLa tumor cell line = assay: Cytotoxicity against HeLa cells (MTT assay); type: cell-based, human; details: for IC50: Homo sapiens, HeLa, 72 h, MTT, n.a. = inactive, read-out: IC50, HeLa; for Selectivity Index (SI): ratio of average IC50 in normal fibroblasts to average IC50 for HeLa
Description: (§1) Cytotoxicity of compounds was evaluated using a culture of human dermal fibroblasts, which were isolated in the Laboratory of Cell Cultures of the Institute of Medical Cell Technologies, Ekaterinburg, Russia and a HeLa tumor cell line obtained at the shared research facility «Vertebrate cell culture collection» of the Institute of Cytology of the Russian Academy of Sciences, St. Petersburg, Russia. Cells were seeded in 96-well plates in the inoculum dose of 2 × 10^5 cells/mL and cultured for 24 h in DMEM, with 1% glutamine in the presence of 10% fetal bovine serum and gentamicin (50 mg/L) at 37 °C, with humidified atmosphere of 5% CO2. Then compounds, which were dissolved in DMSO, were added to the wells at the final concentrations of 10^–7, 10^–6, 10^–5 and 10^–4 M. The cells were incubated with compounds for 72 h, after which cell viability was assessed using the standard MTT assay. The assay was carried out in four replicates with negative (culture medium), positive (solution of the cytotoxic drug camptothecin at a concentration of 3 mM) controls and the solvent control (DMSO). The results of the MTT assay were evaluated on a Tecan Infinite M200 PRO (Tecan Austria GmbH, Grödig, Austria) plate spectrophotometer by comparing the optical density of a formazan solution at 570 nm in the assay and control wells. The half maximal inhibitory concentrations (IC50) were calculated by AAT Bioquest-calculator (https://www.aatbio.com/tools/ic50-calculator (accessed on 14 November 2022)).

[4] = system: Trichophyton rubrum RCPF F 1408; assay: Antifungal susceptibility testing, T. rubrum; details: for MIC: Trichophyton rubrum, RCPFF1408, read-out: MIC for fungi strains inhibition, T. rubrum
Description: The solvent was DMSO. […] In each test, a growth control and a sterility control were used.

human dermal fibroblasts = assay: Cytotoxicity against human dermal fibroblasts (MTT assay); type: cell-based; details: Fibroblast, 72 h, MTT, n.a. = inactive, read-out: IC50, Human Dermal Fibroblasts
Description: as §1

[5] = hot plate test, rats, dose 15 mg/kg, 1 h, n.a. = inactive (p > 0.05), read-out: Latent Period Prolongation, % 1 h
[6] = hot plate test, rats, dose 15 mg/kg, 2 h, n.a. = inactive (p > 0.05), read-out: Latent Period Prolongation, % 2 h
[7] = 1 h, read-out: Latent Period Prolongation, % 1 h
[8] = 2 h, read-out: Latent Period Prolongation, % 2 h

SMILES	IC50 [1]	ABTS•+-scavenging activity, TEAC (trolox equivalent antioxidant capacity) [1]	change in vivo at 15 mg/kg (Sprague-Dawley (SD) rats; [5])	survival at 14 days [2]	MIC [3]	change in vivo at 15 mg/kg (Sprague-Dawley (SD) rats; [6])	IC50 (HeLa tumor cell line)	Selectivity Index (SI) (HeLa tumor cell line)	MIC [4]	IC50 (human dermal fibroblasts)	MIC for fungi strains inhibition, T. rubrum [4]	analgesic activity in the hot plate test (Sprague-Dawley (SD) rats; SD rats, dose 15 mg/kg, 1 and 2 h)	change in vivo at 15 mg/kg (Sprague-Dawley (SD) rats; [7])	change in vivo at 15 mg/kg (Sprague-Dawley (SD) rats; [8])
O=C1NN=C(C(F)(F)F)/C1=N/Nc1ccccc1 [5a, (Z)-4-(2-Phenylhydrazinylidene)-5-(trifluoromethyl)-2,4-dihydro-3H-pyrazol-3-one]	42.8 ± 2.3 µM	0.50 ± 0.03	40%	100%										
Cc1ccc(N/N=C2\C(=O)NN=C2C(F)(F)F)cc1 [5b, (4Z)-4-[2-(4-Methylphenyl)hydrazinylidene]-5-(trifluoromethyl)-2,4-dihydro-3H-pyrazol-3-one]	46.2 ± 2.4 µM	0.42 ± 0.03	69.5%	100%	62.5 µg/mL (≈ 231 µM)	59.7%	2.26 ± 0.14 µM	3.62	50 µg/mL (≈ 185 µM)	8.18 ± 0.73 µM				
O=C1NN=C(C(F)(F)F)/C1=N/Nc1ccc(Br)cc1 [5c, (4Z)-4-[2-(4-Bromophenyl)hydrazinylidene]-5-(trifluoromethyl)-2,4-dihydro-3H-pyrazol-3-one]	41.5 ± 2.4 µM	0.40 ± 0.02		100%	125 µg/mL (≈ 373 µM)	51%			12.5 µg/mL (≈ 37.3 µM)		12.5 µg/mL			
Cc1ccc(N/N=C2\C(=O)N(C)N=C2C(F)(F)F)cc1 [5d, (4Z)-2-Methyl-4-[2-(4-methylphenyl)hydrazinylidene]-5-(trifluoromethyl)-2,4-dihydro-3H-pyrazol-3-one]	161 ± 3.2 µM	0.15 ± 0.01		100%	15.6 µg/mL (≈ 54.9 µM)				200 µg/mL (≈ 704 µM)			inactive		
Cc1ccc(N/N=C2\C(=O)N(c3ccccc3)N=C2C(F)(F)F)cc1 [5f, (4Z)-4-[2-(4-Methylphenyl)hydrazinylidene]-2-phenyl-5-(trifluoromethyl)-2,4-dihydro-3H-pyrazol-3-one]		0.1 ± 0.006	63%	100%	62.5 µg/mL (≈ 180 µM)	68%	4.49 ± 0.18 µM	4.56	> 200 µg/mL	20.5 ± 2.52 µM				
CS(=O)(=O)c1ccc(N/N=C2\C(=O)N(c3ccccc3)N=C2C(F)(F)F)cc1 [5m, (4Z)-4-(2-[4-(Methylsulfonyl)phenyl]hydrazinylidene)-2-phenyl-5-(trifluoromethyl)-2,4-dihydro-3H-pyrazol-3-one]			116%	100%	125 µg/mL (≈ 305 µM)	144%			100 µg/mL (≈ 244 µM)					
Cc1ccc(N/N=C2\C(=O)N(c3ccc(S(N)(=O)=O)cc3)N=C2C(F)(F)F)cc1 [5p, (4Z)-2-[4-(Aminosulfonyl)phenyl]-4-[2-(4-methylphenyl)hydrazinylidene]-5-(trifluoromethyl)-2,4-dihydro-3H-pyrazol-3-one]		0.03 ± 0.002	62.1%	100%	62.5 µg/mL (≈ 147 µM)	70.9%			> 200 µg/mL					
Cc1ccc(N/N=C2\C(=O)NN=C2C(F)(F)C(F)(F)F)cc1 [6a, (4Z)-4-[2-(4-Methylphenyl)hydrazinylidene]-5-(pentafluoroethyl)-2,4-dihydro-3H-pyrazol-3-one]	46.8 ± 2.1 µM	0.45 ± 0.03	83.9%	100%	62.5 µg/mL (≈ 195 µM)	63.3%	1.47 ± 0.13 µM	8.83		13 ± 2.56 µM				
Cc1ccc(N/N=C2\C(=O)N(c3ccccc3)N=C2C(F)(F)C(F)(F)F)cc1 [6b, (4Z)-4-[2-(4-Methylphenyl)hydrazinylidene]-5-(pentafluoroethyl)-2-phenyl-2,4-dihydro-3H-pyrazol-3-one]		0.04 ± 0.002	158%	100%	0.9 µg/mL (≈ 2.27 µM)	74.3%	65.9 ± 5.22 µM	1.49		98.6 ± 6.32 µM				
Cc1ccc(N/N=C2\C(=O)NN=C2C(F)(F)C(F)(F)C(F)(F)F)cc1 [7a, (4Z)-5-(Heptafluoropropyl)-4-[2-(4-methylphenyl)hydrazinylidene]-2,4-dihydro-3H-pyrazol-3-one]	41.5 ± 1.8 µM	0.54 ± 0.03		100%	> 250 µg/mL				> 200 µg/mL				42%	52%
Cc1ccc(N/N=C2\C(=O)N(c3ccccc3)N=C2C(F)(F)C(F)(F)C(F)(F)F)cc1 [7b, (4Z)-5-(Heptafluoropropyl)-4-[2-(4-methylphenyl)hydrazinylidene]-2-phenyl-2,4-dihydro-3H-pyrazol-3-one]		0.03 ± 0.002		100%	31.2 µg/mL (≈ 69.9 µM)		59.7 ± 6.34 µM	1.24		73.8 ± 5.32 µM			144%	82.3%
CC1=NNC(=O)/C1=N\Nc1ccc(C)cc1 [9a, (4Z)-5-Methyl-4-[2-(4-methylphenyl)hydrazinylidene]-2,4-dihydro-3H-pyrazol-3-one]	25.4 ± 1.1 µM	0.86 and 0.86 ± 0.04	80.8%	100%	> 250 µg/mL		3.16 ± 0.25 µM	7.68		24.3 ± 1.82 µM				
CC1=NN(c2ccccc2)C(=O)/C1=N\Nc1ccc(C)cc1 [9b, (4Z)-5-Methyl-4-[2-(4-methylphenyl)hydrazinylidene]-2-phenyl-2,4-dihydro-3H-pyrazol-3-one]	28.3 ± 1.2 µM	0.8 and 0.80 ± 0.05		100%	> 250 µg/mL	140%	46.5 ± 1.98 µM	0.52	> 200 µg/mL	24.1 ± 3.21 µM				
